# Measurements reported in patent publication US20120283280A1, “IMIDAZOTETRAZINONE-BASED COMBI-MOLECULES” (priority 2011, published 2012).
# Entries after “also recorded” stand apart in the source; their conditions may differ.
# Experiments:
# [1] = Dose finding and comparative toxicity study in mice; type: in vivo; parameters: key to Vital Sign, Day 8 / Vital Sign, Day 10 / Vital Sign, Day 16 / Vital Sign, Day 1 / Vital Sign, Day 3 / Vital Sign, Day 6: Normal (i.e. No sign of Toxicity); BCS = 2: BCS (Body Condition Score) = 2 indicates that mice are underconditioned (observable signs include segmentation of the vertebral column, palpability of the dorsal pelvic bones); details: for Vital Sign, Day 1 / Vital Sign, Day 3 / Vital Sign, Day 6 / Vital Sign, Day 8 / Vital Sign, Day 10 / Vital Sign, Day 16: CD-1 mice (n = 6), 100 mg/kg once every other day
# From the text: The results are further illustrated hereinbelow in Table 4.
# DU145 cell line = test: Mouse xenograft study (DU145); details: DU145 xenograft, 100 mg/kg i.p. every other day, 31 days after treatment
# DU145 = test: Growth inhibition assay (SRB), DU145; details: Homo sapiens, DU-145, 144 h, read-out: IC50 (x ± SD)
# Protocol: (§1) Cell Culture: The human prostate cancer cell line DU145 was obtained from the American Type Culture Collection (Manassas, Va.)). The androgen-sensitive prostate cancer cell lines LNCaP-FGC, LNCaP-EGFR and LNCaP-erbB2 (stably transfected with EGFR erbB2 gene respectively) were generous gifts from Dr. Moulay Aloui-Jamali (Jewish General Hospital, Montreal, Quebec, Canada). […] The cultures were maintained in logarithmic growth by harvesting with a trypsin-EDTA solution containing 0.5 mg/mL trypsin and 0.2 mg/mL EDTA and replating before confluence. In all assays, the cells were plated over a period of time ranging from 24-48 h prior to drug administration.
# LNCaP-WT = test: Growth inhibition assay (SRB), LNCaP-WT; details: 144 h, read-out: IC50 (x ± SD)
# Protocol: as §1
# LNCaP-EGFR = test: Growth inhibition assay (SRB), LNCaP-EGFR; details: 144 h, read-out: IC50 (x ± SD)
# Protocol: as §1
# EGFR tyrosine kinase = biological target: T1, EGFR tyrosine kinase (Homo sapiens, UniProt P00533); test: EGFR kinase enzyme assay (ELISA, PGT phosphorylation); type: biochemical
# T1 construct: purchased
# Protocol: EGFR Kinase Enzyme Assay: The EGFR kinase assay was performed following a known procedure. Briefly, Nunc MaxiSorp (Nalge Nunc International, Rochester, N.Y., USA) 96-well plates were incubated overnight at 37° C. with 100 μL/well of […] poly(L-glutamic acid-L-tyrosine, 4:1) PGT in PBS. Excess PGT was removed and the plates were washed three times with wash buffer (0.1% Tween-20 in PBS). The kinase reaction was performed using commercially available isolated EGFR (4.5 ng/well). The compound was added and phosphorylation was initiated by the addition of 20 μL/well of ATP (50 μM). After 8 min at room temperature with constant shaking, the reaction was terminated by aspiration of the reaction mixture and rinsing of the plates (four times) with wash buffer. Phosphorylated PGT was detected following a 25 min incubation with 50 μL/well of horseradish peroxidase-conjugated PY20 anti-phosphotyrosine antibody (Santa Cruz Biotechnology, Santa Cruz, Calif., USA) diluted to […] in blocking buffer (3% bovine serum albumin and 0.05% Tween-20 in PBS). The antibody was removed by aspiration and the plates washed four times with wash buffer. The signals were developed by the addition of 50 μL/well of 3,3′,5,5′-tetramethylbenzidine peroxidase substrate (Kirkegaard and Perry Laboratories, Gaithersberg, Md., USA). Following blue color development, H2SO4 (50 μL; 0.09 M) was added per well to stop the reaction. The plates were read at 450 nm using a Bio-Rad ELISA reader (model 2550; Bio-Rad, Hercules, Calif., USA).
# Inhibition of EGFR TK: The EGFR TK inhibitory activity of JDF12 and its metabolite JDF04R was tested in a short 8 minute exposure to an ELISA assay. The assay was based on the inhibition of phosphorylation of poly(L-glutamic acid-L-tyrosine, 4:1) (PGT) by EGFR tyrosine kinase. […] As expected, the EGFR TK-inhibitory activity of MTZ was negligible (FIG. 1).
# [2] = biological target: T2, EGFR autophosphorylation in DU145 cells (Homo sapiens, UniProt P00533); test: EGFR phosphorylation assay, whole cell (Western blot); type: cell-based; details: DU145 cells, at concentrations as low as 6 μM
# T2 construct: endogenous in cells; host or cells: DU145
# Protocol: EGFR Phosphorylation Assay: DU145 cells (1×10^6) were preincubated in a six-well plate using 10% serum at 37° C. over a period of 24 h followed by a starving period of 24 h. The cells where then exposed to a dose range of each drug over a period of 2 h and subsequently treated with 50 ng/ml of EGF for 20 min at 37° C. The cells were washed with PBS and resuspended in cold lysis buffer [50 mmol/L Tris-HCl (pH 7.5), 150 mmol/L NaCl, 1% NP40, 1 mmol/L EDTA, 5 mmol/L NaF, 1 mmol/L Na3VO4, protease inhibitor tablet (Roche Biochemicals, Laval, Quebec, Canada)]. The lysates were kept on ice for 30 min and collected by centrifugation at 10,000 rpm for 20 min at 4° C. The concentrations of protein were determined using the Bio-Rad protein assay kit (Bio-Rad Laboratories, Hercules, Calif.). Equal amounts of protein […] were subjected to a 10% SDS-polyacrylamide gel electrophoresis (SDS-PAGE) and transferred to a polyvinylidene difluoride membrane (Millipore, Bedford, Mass.). Nonspecific binding on the membrane was minimized with a blocking buffer containing bovine serum albumin (5%) in PBS-Tween 20. The membranes were subsequently incubated with primary anti-phosphotyrosine antibody (Upstate Biotechnology, Lake Placid, N.Y.) for the detection of phosphotyrosine. The membranes were stripped and reprobed with anti-EGFR (Neomarkers, Fremont, Calif.) for determination of corresponding receptor levels. Blots were incubated with horseradish peroxidase-goat anti-mouse antibody (1:1,000 dilution; Cell Signaling Research, Beverly, Mass.), and the bands visualized with an enhanced chemiluminescence system (Amersham Pharmacia Biotech,. Little Chalfont, UK). Band intensities were measured using the SynGene GeneTools software package.
# Inhibition of EGFR TK in Whole Cell Assay: DU145 cells were starved for 24 h and stimulated with EGF in the presence of the different drugs over a period of 2 h. Inhibition of autophosphorylation of EGFR was analyzed by Western blotting. The observed order of potency from this whole cell assay paralleled the one previously observed with ELISA. […]
# DU145 cells = test: Alkaline comet assay for quantization of DNA damage; type: cell-based, human
# Protocol: Alkaline Comet Assay for Quantization of DNA Damage: A modified alkaline comet assay technique was used for quantization of DNA damage induced in DU145 cells. The cells were exposed to a dose range of the drugs (JDF12, JDF04R, or MTZ) over a period of 2 h and harvested with trypsin-EDTA. The cells were subsequently collected by centrifugation and resuspended in PBS. The resulting cell suspensions were diluted to 3×10^5 cell/mL and mixed with agarose (0.75%) in PBS at 37° C. in a 1:9 dilution. The gels were cast on Gelband strips (Mandel Scientific, Guelph, Ontario, Canada) using gel casting chambers and then immediately placed into a lysis buffer (2.5 M NaCl, 0.1 M tetrasodium EDTA, 10 mM Trisbase, 1% (v/v) N-lauryl sarcosine, 10% (v/v) DMSO, and 1% (v/v) Triton X-100). After being kept overnight at 4° C., the gels were gently rinsed with distilled water and immersed in a second lysis buffer (2.5 M NaCl, 0.1 M tetrasodium EDTA, 10 mM Tris base) containing 1 mg/mL proteinase K for 60 min at 37° C. The cells were subsequently rinsed with distilled water, incubated in alkaline electrophoresis buffer for 30 min at 37° C. and electrophoresed at 400 mA for 20 min. The gels were then rinsed with distilled water and placed into 1 M ammonium acetate for 30 min. The gels were subsequently soaked in 100% ethanol for 2 h, dried overnight and stained with SYBR Gold (1:10000 dilution of stock supplied by Molecular Probes, Eugene, Oreg.) for 20 min. Comets were visualized at 330× magnification and DNA damage was assessed using the tail moment parameter (i.e. the distance between the barycenter of the head and the tail of the comet multiplied by the percentage DNA in the tail region). A minimum of 50 cell comets were analyzed for each sample, using Comet Assay χ v4.2 image analysis software, and the values presented as average tail moments for the entire cell population.
# The reactive nature of the latter species makes its detection very difficult. However, the induction of DNA damage (i.e. DNA alkylation) represents evidence of its formation and fleeting presence.
# LNCaP-ErbB2 = test: Growth inhibition assay (SRB), LNCaP-ErbB2; details: 144 h, read-out: IC50 (x ± SD)
# Protocol: as §1
# [3] = listed as Mitozolomide, 100 mg/kg
# T1 sequence (P00533 25-1210): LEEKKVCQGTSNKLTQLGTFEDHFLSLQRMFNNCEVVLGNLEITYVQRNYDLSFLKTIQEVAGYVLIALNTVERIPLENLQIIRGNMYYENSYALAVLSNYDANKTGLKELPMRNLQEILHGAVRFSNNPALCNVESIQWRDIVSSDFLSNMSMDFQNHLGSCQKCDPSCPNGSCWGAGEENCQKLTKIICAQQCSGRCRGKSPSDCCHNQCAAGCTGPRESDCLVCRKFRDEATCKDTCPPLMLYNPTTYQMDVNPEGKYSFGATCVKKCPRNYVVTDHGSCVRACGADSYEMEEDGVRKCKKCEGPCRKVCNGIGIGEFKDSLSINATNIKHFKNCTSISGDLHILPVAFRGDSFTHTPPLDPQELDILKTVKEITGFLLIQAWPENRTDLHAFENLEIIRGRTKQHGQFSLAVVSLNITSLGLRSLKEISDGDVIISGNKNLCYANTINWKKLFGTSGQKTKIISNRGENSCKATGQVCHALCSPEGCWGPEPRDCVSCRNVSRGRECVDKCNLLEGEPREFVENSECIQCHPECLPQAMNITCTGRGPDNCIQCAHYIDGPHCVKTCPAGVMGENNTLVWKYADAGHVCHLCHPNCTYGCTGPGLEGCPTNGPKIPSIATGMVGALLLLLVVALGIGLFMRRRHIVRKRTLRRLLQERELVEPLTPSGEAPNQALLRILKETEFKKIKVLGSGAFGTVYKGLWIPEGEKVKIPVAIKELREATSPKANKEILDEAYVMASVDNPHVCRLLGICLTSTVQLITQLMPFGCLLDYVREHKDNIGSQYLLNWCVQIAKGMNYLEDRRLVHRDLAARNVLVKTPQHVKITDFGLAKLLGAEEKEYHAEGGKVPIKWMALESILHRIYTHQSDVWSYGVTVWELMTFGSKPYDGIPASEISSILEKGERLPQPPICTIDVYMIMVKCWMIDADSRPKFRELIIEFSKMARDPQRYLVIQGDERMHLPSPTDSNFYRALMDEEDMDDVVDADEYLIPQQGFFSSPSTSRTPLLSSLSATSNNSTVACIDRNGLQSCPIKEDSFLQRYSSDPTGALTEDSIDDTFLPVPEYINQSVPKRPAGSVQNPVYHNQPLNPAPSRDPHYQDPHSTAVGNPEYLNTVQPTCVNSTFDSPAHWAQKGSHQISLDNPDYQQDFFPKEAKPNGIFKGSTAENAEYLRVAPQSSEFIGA
# T2 sequence (P00533 25-1210): as above
smiles,measurement,setting,value
COc1cc2ncnc(Nc3ccc(F)c(Cl)c3)c2cc1OCCCN1CCOCC1 [Iressa],"Vital Sign, Day 1",[1],Normal
same,"Vital Sign, Day 3",[1],Normal
same,"Vital Sign, Day 6",[1],Normal
same,"Vital Sign, Day 8",[1],Normal
same,"Vital Sign, Day 10",[1],Normal
same,"Vital Sign, Day 16",[1],Normal
same,toxicity at 100 mg/kg,"[1]; CD-1 mice, 100 mg/kg",no signs of toxicity
same,antitumor activity,DU145 cell line,did not show significant antitumor activity
Nc1[nH]cnc1C(=O)Nc1ccc2ncnc(Nc3cccc(Cl)c3)c2c1 [JDF04R],IC50,DU145,151 ± 17 µM
same,IC50,LNCaP-WT,178 ± 13.3 µM
same,IC50,LNCaP-EGFR,119 ± 4.1 µM
same,IC50,"EGFR tyrosine kinase; ELISA, 8 minute exposure, PGT substrate, read-out: IC50, EGFR TK inhibition",0.23 µM
same,more potent EGFR TK inhibitor than JDF12 (fold),"EGFR tyrosine kinase; JDF04R vs JDF12, ELISA IC50",2.7 fold
same,inhibition of EGFR TK,[2],~100%
same,DNA damage (tail moment),"DU145 cells; DU145 cells, 2 h exposure",did not demonstrate any DNA damaging activity
same,IC50,LNCaP-ErbB2,111 ± 18.1 µM
"NC(=O)c1ncn2c(=O)n(CCCl)nnc12 [MTZ, 8-carbamoyl-3-(2-chloroethyl)imidazo[5,1-d]-1,2,3,5-tetrazin-4(3H)-one]",IC50,DU145,179 ± 21.1 µM
same,IC50,LNCaP-WT,150 ± 7.92 µM
same,"Vital Sign, Day 1",[1],Normal
same,"Vital Sign, Day 3",[1],Normal
same,"Vital Sign, Day 6",[1]; [3],Weight loss > 20% (1 mouse); also recorded: Death (1 mouse); also recorded: (BCS = 2)
same,"Vital Sign, Day 8",[1]; [3],(BCS = 2); also recorded: Weight loss > 20% (1 mouse)
same,"Vital Sign, Day 10",[1]; [3],(BCS = 2); also recorded: Weight loss > 20% (1 mouse)
same,"Vital Sign, Day 16",[1]; [3],(BCS = 2); also recorded: All Mice Thin; also recorded: Death (3 mice)
same,toxicity at 100 mg/kg,"[1]; CD-1 mice, 100 mg/kg",toxic at this dose
same,overall body condition score (BCS),"[1]; CD-1 mice, 100 mg/kg, 6-10 days after initiating treatment",2
same,IC50,LNCaP-EGFR,176 ± 6.51 µM
same,EGFR TK-inhibitory activity,"EGFR tyrosine kinase; ELISA, FIG. 1",negligible
same,"level of DNA damage, fold higher than JDF12",DU145 cells,approximately 2 fold
same,IC50,LNCaP-ErbB2,142 ± 8.93 µM
